Marks after values point to notes of the source that are not given here.
What was measured:
CDK9/cyclin T1 = CDK9/cyclin T1 (Homo sapiens, UniProt P50750); experiment: Kinase assay CDK9/cyclin T1; format: biochemical; conditions: Ki calculated (Cheng-Prusoff) from experimentally determined IC50 and Km,ATP; read-out: Kinase Inhibition Ki CDK9 - cyclin T1
In short: (§1)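 Radiometric filter assays used recombinant kinases or complexes (2-4 μg) with appropriate polypeptide substrates in pH 7.4 β-glycerophosphate/MOPS buffer. Reactions were started with 15 mM MgCl2 and 100 μM ATP containing [γ-32P]-ATP and run at 30° C. Phosphate incorporated into substrate was counted by scintillation after washing.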

CDK7/cyclin H = CDK7/cyclin H (Homo sapiens, UniProt P50613); experiment: Kinase assay CDK7/cyclin H; format: biochemical; conditions: Ki calculated (Cheng-Prusoff) from experimentally determined IC50 and Km,ATP; read-out: Kinase Inhibition Ki CDK7 - cyclin H
In short: as §1

CDK1/cyclin B = CDK1/cyclin B (Homo sapiens, UniProt P06493); experiment: Kinase assay CDK1/cyclin B (radioactive phosphate incorporation); format: biochemical; conditions: Ki calculated (Cheng-Prusoff) from experimentally determined IC50 and Km,ATP; read-out: Kinase Inhibition Ki CDK1 - cyclin B
In short: (§2)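 Radiometric assays measured transfer of radioactive phosphate from ATP onto polypeptide substrates, using 2-4 μg recombinant active enzyme in buffer typically containing 25 mM β-glycerophosphate, 20 mM MOPS, 5 mM EGTA, 1 mM DTT and 1 mM Na3VO3 at pH 7.4. Reactions were stopped on ice, filtered on P81 or GF/C plates and washed with orthophosphoric acid. Incorporated radioactivity was scintillation-counted.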

GSK3β = target: T1, GSK3β (Homo sapiens, UniProt P49841); experiment: GSK3β in vitro kinase assay; format: biochemical; conditions: recombinant human GSK3β, 100 μM ATP
T1 construct: purchased New England Biolabs
In short: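 Radiometric filter-binding assay with GSK3β (1.5 units), 200 μM CREB phosphopeptide, 100 μM ATP plus [γ-32P]ATP, in 20 mM Tris HCl pH7.5, 5 mM DTT, 15 mM MgCl2, 2% DMSO; 30 min at 30° C, stopped with phosphoric acid. 32P incorporation counted by scintillation; IC50 from 10-point titration.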

CDK2/cyclin E = CDK2/cyclin E (Homo sapiens, UniProt P24941); experiment: Kinase assay CDK2/cyclin E; format: biochemical; conditions: Ki calculated (Cheng-Prusoff) from experimentally determined IC50 and Km,ATP; read-out: Kinase Inhibition Ki CDK2 - cyclin E
In short: as §2

CDK4/cyclin D1 = CDK4/cyclin D1 (Homo sapiens, UniProt P11802); experiment: Kinase assay CDK4/cyclin D1; format: biochemical; conditions: Ki calculated (Cheng-Prusoff) from experimentally determined IC50 and Km,ATP; read-out: Kinase Inhibition Ki CDK4 - cyclin D1
In short: as §1

aurora A = target: T2, aurora A (Homo sapiens, UniProt O14965); experiment: Kinase assay aurora A; format: biochemical; conditions: Ki calculated (Cheng-Prusoff) from experimentally determined IC50 and Km,ATP; read-out: Kinase Inhibition Ki Aurora A
T2 sequence (O14965 1-403): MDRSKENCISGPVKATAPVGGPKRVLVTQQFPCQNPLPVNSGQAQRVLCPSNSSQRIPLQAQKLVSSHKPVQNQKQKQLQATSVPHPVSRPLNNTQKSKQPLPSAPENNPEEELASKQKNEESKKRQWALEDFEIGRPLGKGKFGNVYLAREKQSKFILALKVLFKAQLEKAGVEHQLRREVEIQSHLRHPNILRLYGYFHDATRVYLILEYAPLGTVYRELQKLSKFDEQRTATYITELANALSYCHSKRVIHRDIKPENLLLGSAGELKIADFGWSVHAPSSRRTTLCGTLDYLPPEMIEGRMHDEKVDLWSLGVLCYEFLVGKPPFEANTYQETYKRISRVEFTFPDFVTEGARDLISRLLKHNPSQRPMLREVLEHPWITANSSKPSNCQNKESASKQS
In short: as §2

CDK2/cyclin A = CDK2/cyclin A (Homo sapiens, UniProt P24941); experiment: Kinase assay CDK2/cyclin A; format: biochemical; conditions: Ki calculated (Cheng-Prusoff) from experimentally determined IC50 and Km,ATP; read-out: Kinase Inhibition Ki CDK2 - cyclin A
In short: as §2

HIV-1 = HIV-1 in human PBMCs, seven days following infection
Description: Representative compounds of the present invention were tested for antiviral activity against HIV-1 in human peripheral blood mononuclear cells (PBMCs) using the clinical paediatric HIV strains RoJo or WeJo. PBMCs were cultured under conditions which promote cell survival and HIV replication.
Fresh PBMCs, seronegative for HIV and HBV, were isolated from screened donors (Interstate Blood Bank, Inc. Memphis, Tenn.). Cells were pelleted/washed 2-3 times by low speed centrifugation and re-suspension in PBS to remove contaminating platelets. […] Banded PBMCs were gently aspirated from the resulting interface and subsequently washed with PBS by low speed centrifugation. […] The cells were allowed to incubate at 37° C. […] IL-2 is included in the culture medium to maintain the cell division initiated by the PHA mitogenic stimulation. PBMCs were maintained in this with bi-weekly medium changes until used in the assay protocol. Cells were kept in culture for a maximum of two weeks before being deemed too old for use in assays and discarded. Monocytes were depleted from the culture as the result of adherence to the tissue culture flask.
For the standard PBMC assay, PHA-P stimulated cells from at least two normal donors were pooled, diluted and plated in the interior wells of a 96-well round bottom microplate. Pooling of mononuclear cells from more than one donor was used to minimise the variability observed between individual donors, which results from quantitative and qualitative differences in HIV infection and overall response to the PHA and IL-2 of primary lymphocyte populations. Each plate contained virus/cell control wells (cells plus virus), experimental wells (drug plus cells plus virus) and compound control wells (drug plus media without cells, necessary for MTS monitoring of cytotoxicity). Since HIV-1 is not cytopathic to PBMCs, this allows the use of the same assay plate for both antiviral activity and cytotoxicity measurements. Test drug dilutions were prepared in microtiter tubes and each concentration was placed in appropriate wells using the standard format. A predetermined dilution of virus stock was placed in each test well (final MOI≅0.1). The PBMC cultures were maintained for seven days following infection at 37° C., 5% CO2 After this period, cell-free supernatant samples were collected for analysis of reverse transcriptase activity and/or HIV p24 content. Following removal of supernatant samples, compound cytotoxicity was measured by addition of MTS to the plates for determination of cell viability. Wells were also examined microscopically and any abnormalities were noted.
Tritiated thymidine triphosphate (^3H-TTP, 80 Ci/mmol, NEN) was received in 1:1 dH2O:Ethanol at 1 mCi/mL. Poly rA:oligo dT template:primer (Pharmacia) was prepared as a stock solution, followed by aliquoting and storage at −20° C. The RT reaction buffer was prepared fresh on a daily basis. The final reaction mixture was prepared by combining ^3H-TTP, dH2O, poly rA:oligo dT stock and reaction buffer. This reaction mixture was placed in a round bottom microtiter plate and supernatant containing virus was added and mixed. The plate was incubated at 37° C. for 60 minutes. Following incubation, the reaction volume was spotted onto DE81 filter-mats (Wallac), in a sodium phosphate buffer or 2×SSC (Life Technologies). Next they were washed in distilled water, in 70% ethanol, and then dried. Incorporated radioactivity (counts per minute, CPM) was quantified using standard liquid scintillation techniques.

DYRK1A = target: T3, DYRK1A (Homo sapiens, UniProt Q13627); experiment: DYRK1A in vitro kinase assay; format: biochemical; conditions: recombinant human DYRK1A, 100 μM ATP
T3 construct: purchased Upstate
Text: Dual specificity tyrosine phosphorylation regulated kinase 1A (DYRK1A) has been proposed, amongst other functions, to play a role in the regulation of glycogen metabolism in a way similar to GSK3. Some of the example compounds of the present invention were screened against recombinant human DYRK1A in vitro and the determined IC50 values are shown in Table 9. According to our current knowledge inhibition of DYRK1A will have additional positive effect on stimulation of glycogen synthase.
A 10-point titration was set up to determine the IC50 values of selected example compounds against DYRK1A. Assays were performed using 96-well microtiter plates and a final volume of 25 μL/well. Each assay contained 2.3 milliunits of DYRK1A (Upstate), 50 μM Woodtide peptide ([…], Upstate), 20 mM Tris HCl pH 8.0, 10 mM DTT, 5 mM EGTA, 1 mM NaVO3, 31 mM β-glycerophosphate, 15 mM MgCl2 supplemented with 100 μM ATP and 0.5 μCi of [γ-^32P] ATP plus or minus inhibitor in 2% DMSO. Assays were carried out for 60 minutes at 30° C. before stopping the reaction by the addition of an equal volume of 75 mM aqueous phosphoric acid. Samples were then spotted onto a p81 filterplate (Whatman) and a vacuum applied. Wells were washed 3 times with 200 μL of dilute aqueous phosphoric acid before the addition of 50 μL Microscint 40 per well. Incorporation of radioactivity was determined on a Topcount microplate scintillation counter (Packard).

[1] = Oral glucose tolerance in male ZDF fa/fa rats; format: in vivo, rat
Description: (§3) The ability of example compounds of the present invention to improve glucose metabolism was tested in 12-13 week old male ZDF fa/fa rats. The test animals (10-15 mmol/L fasting glucose level) were dosed twice at 30 mg/kg and the glucose challenge was given at time 0. […] Most of these blood levels were below the EC50 values determined in cellular assays.
(§4) 12-13 weeks old male ZDF fa/fa rats were used to study the effect of example compounds on oral glucose tolerance. […] Body weight was recorded three times per week. Test compounds were dissolve in a formulation of 10% DMSO, 5% Tween, 5% Span 20, 30% PEG 400 and 50% water (v/v) to provide final solutions at 5 mg/mL concentration. Each experimental group contained 7 animals. After an 16 h overnight fast the test compounds were administered at 30 mg/kg per os twice (at −270 min and −30 min) before the oral glucose tolerance test was commenced (2 g glucose/kg per os as a 40% solution introduced via feeding tube). A control group was dosed in a similar manner with the vehicle only. Blood sampling for blood glucose measurement (20 μL blood) was performed at −270, 0, 15, 30, 60, 90, 120 and 180 min. Mixed venous blood was collected from the tail vein into 20-μL glass capillaries, which were placed in a standard tube filled with 1 mL solution for hemolysis. Glucose levels were measured using the glucose oxidase procedure (Super G Glukosemessgeraet; Dr Mueller Geraetebau, Freital, Germany). In addition, 50 μL blood samples were taken at 30 and 60 min after the glucose dose, placed in heparinized tubes, which were then frozen immediately in liquid nitrogen. The bioanalytical method used employed isocratic elution liquid chromatography—tandem mass spectrometry in electrospray positive ion multiple reaction monitoring mode.

GSK3α = target: T4, GSK3α (Homo sapiens, UniProt P49840); experiment: GSK3α in vitro kinase assay; format: biochemical; conditions: recombinant human GSK3α, 100 μM ATP
T4 construct: purchased Upstate
Description: Both isoforms of GSK3 (α and β) are involved in the regulation of glycogen synthase activity—key enzyme in the glycogen metabolism. The inhibitory potency of example compounds was determined using in vitro kinase assays with recombinant human GSK3-α and -β; the IC50 values determined are presented in Table 9.
A 10-point titration was set up to determine the IC50 values of selected example compounds against GSK3β. Assays were performed using 96-well microtiter plates with a final volume of 25 μL per well. Each assay contained 1.5 units of GSK3β(New England Biolabs), 200 μM CREB phosphopeptide ([…]pSYR, Alta Biosciences), 20 mM Tris HCl pH7.5, 5 mM DTT, 15 mM MgCl2 supplemented with 100 μM ATP and 0.5 μCi of [γ-^32P] ATP plus or minus inhibitor in 2% DMSO. Assays were carried out for 30 minutes at 30° C. before stopping the reaction by the addition of an equal volume of 75 mM aqueous phosphoric acid. Samples were then spotted onto a p81 filterplate (Whatman) and a vacuum was applied. Wells were washed 3 times with 200 μL of dilute aqueous phosphoric acid before the addition of 50 μL Microscint 40 per well. Incorporation of radioactivity was determined on a Topcount microplate scintillation counter (Packard).
GSK3α (Upstate) was assayed exactly as described above except that 1 ng of enzyme was added per assay point.

[2] = Blood levels of test compounds in ZDF fa/fa rats; format: in vivo, rat; conditions: 30 mg/kg per os twice
Description: as §3, §4

PEPCK gene expression = PEPCK gene expression assay - qPCR in HEPG2 cells; format: cell-based; conditions: HEPG2; 100 nM + Dex/cAMP
Description: PEPCK gene expression was studied in HEPG2 (hepatocarcinoma) cells, seeded in 6-well plate at […] per well. The cells were serum-starved for 20 hours before treatment with dexamethasone/cAMP (stimulator of PEPCK gene expression) in the presence or absence of insulin or GSK3 inhibitor example compounds. After 3 hours treatment the cells were harvested, lysed and RNA extracted using mini RNeasy spin columns (Quiagen). The primer set COD2063/COD2064 (350 bp) was used for the PEPCK gene. The one step RT-PCR was carried out using the Lightcycler-RNA Master SYBR Green 1 Kit. The qPCR analysis calculates the number of the PCR cycles required for the PCR product amplification to reach logarithmic phase. QPCR for a housekeeping gene—28S—was used for normalisation. PEPCK is a key enzyme in gluconeogenesis in the liver and it is known to be negatively regulated by insulin via inhibition of GSK3. The effect of example compounds on PEPCK gene expression was studied in HEPG2 cells treated with dexamethasone/cAMP (a positive regulator PEPCK gene expression) in the presence or absence of insulin or GSK3 inhibitors. Example compound inhibitors of GSK3 were efficient in the abolishment of dexamethasone/cAMP induced stimulation of PEPCK gene expression in HEPG2 cells.

[3] = ZDF fa/fa rats, oral glucose tolerance, 30 mg/kg per os twice (−270 and −30 min)
[4] = male ZDF fa/fa rats, 30 mg/kg per os twice, oral glucose tolerance test

Chain of CDK7/cyclin H (P50613 whole entry, species assumed): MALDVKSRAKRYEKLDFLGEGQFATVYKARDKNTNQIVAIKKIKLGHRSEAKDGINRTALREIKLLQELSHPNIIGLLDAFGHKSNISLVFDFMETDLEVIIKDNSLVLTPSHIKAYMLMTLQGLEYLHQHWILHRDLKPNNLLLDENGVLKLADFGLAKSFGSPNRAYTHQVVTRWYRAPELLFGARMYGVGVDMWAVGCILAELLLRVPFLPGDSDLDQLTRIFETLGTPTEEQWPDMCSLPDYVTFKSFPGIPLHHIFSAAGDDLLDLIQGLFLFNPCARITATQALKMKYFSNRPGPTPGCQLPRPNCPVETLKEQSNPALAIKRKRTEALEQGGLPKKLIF
Chain of CDK7/cyclin H (P51946 whole entry partner, species assumed): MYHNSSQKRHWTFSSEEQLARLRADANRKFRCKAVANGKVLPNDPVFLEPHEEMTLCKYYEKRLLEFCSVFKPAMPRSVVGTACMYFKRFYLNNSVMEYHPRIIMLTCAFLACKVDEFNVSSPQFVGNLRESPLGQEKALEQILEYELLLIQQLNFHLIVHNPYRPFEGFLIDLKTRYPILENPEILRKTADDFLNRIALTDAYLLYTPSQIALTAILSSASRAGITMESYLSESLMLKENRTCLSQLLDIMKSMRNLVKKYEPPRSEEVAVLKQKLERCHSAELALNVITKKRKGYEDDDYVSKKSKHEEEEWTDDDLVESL
T4 sequence (P49840 whole entry): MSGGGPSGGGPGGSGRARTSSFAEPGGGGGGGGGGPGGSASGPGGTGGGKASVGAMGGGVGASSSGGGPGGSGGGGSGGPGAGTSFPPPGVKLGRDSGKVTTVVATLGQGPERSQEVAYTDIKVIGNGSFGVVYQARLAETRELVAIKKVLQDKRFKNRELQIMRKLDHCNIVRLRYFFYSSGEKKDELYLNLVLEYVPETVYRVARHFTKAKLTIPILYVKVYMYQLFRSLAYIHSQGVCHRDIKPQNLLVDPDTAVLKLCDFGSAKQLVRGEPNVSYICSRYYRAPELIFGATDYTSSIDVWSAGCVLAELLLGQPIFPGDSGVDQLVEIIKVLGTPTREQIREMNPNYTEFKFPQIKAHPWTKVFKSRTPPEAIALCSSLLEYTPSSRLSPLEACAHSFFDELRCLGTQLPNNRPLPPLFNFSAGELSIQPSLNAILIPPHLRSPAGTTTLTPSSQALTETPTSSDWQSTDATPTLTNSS
T1 sequence (P49841 whole entry): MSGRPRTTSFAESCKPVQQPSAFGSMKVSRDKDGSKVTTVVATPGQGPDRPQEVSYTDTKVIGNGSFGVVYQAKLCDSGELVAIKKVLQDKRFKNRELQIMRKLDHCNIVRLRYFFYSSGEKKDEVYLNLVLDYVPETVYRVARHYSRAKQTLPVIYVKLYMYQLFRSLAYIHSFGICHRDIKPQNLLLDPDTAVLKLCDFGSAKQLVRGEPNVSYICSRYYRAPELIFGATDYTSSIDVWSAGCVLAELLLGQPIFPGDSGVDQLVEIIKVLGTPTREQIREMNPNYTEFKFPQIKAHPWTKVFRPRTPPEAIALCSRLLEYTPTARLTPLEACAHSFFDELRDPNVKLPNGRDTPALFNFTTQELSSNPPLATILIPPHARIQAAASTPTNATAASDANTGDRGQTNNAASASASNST
Chain of CDK9/cyclin T1 (P50750 whole entry, species assumed): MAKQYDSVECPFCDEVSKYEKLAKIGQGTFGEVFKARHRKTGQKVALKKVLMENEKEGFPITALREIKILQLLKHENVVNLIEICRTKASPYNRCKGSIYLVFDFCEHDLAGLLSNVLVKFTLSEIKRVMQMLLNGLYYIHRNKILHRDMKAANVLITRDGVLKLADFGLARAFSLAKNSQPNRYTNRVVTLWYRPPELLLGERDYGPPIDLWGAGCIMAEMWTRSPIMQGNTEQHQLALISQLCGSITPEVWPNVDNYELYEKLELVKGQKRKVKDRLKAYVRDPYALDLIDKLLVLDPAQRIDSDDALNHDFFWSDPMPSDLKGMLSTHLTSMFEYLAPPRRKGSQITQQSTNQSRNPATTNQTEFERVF
Chain of CDK9/cyclin T1 (O60563 whole entry partner, species assumed): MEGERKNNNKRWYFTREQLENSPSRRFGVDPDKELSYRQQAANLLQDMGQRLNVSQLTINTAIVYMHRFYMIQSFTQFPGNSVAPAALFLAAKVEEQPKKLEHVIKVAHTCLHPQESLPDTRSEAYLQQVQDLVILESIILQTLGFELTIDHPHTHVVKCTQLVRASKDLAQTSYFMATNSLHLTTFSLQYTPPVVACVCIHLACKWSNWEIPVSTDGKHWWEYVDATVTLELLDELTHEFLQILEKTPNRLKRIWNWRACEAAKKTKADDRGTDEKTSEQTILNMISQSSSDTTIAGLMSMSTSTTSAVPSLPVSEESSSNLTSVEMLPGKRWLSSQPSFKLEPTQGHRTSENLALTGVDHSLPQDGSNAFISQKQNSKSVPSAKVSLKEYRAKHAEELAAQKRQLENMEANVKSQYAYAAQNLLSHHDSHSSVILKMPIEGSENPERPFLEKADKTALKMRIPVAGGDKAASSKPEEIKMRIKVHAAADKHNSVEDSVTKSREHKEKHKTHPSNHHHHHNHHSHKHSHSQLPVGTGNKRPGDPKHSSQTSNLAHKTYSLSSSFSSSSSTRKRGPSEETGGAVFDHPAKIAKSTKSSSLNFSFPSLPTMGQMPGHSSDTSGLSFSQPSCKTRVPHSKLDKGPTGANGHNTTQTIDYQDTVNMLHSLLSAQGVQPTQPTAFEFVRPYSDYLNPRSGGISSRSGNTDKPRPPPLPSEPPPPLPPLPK
Chain of CDK1/cyclin B (P06493 whole entry, species assumed): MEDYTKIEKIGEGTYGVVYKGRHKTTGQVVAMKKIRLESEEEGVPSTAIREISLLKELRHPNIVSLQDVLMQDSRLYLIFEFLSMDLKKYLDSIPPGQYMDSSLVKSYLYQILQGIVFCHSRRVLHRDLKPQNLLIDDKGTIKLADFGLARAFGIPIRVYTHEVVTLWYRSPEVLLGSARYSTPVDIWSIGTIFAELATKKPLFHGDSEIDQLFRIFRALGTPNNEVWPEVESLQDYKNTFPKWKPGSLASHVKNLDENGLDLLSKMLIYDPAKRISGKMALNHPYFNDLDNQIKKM
Chain of CDK1/cyclin B (P14635 whole entry partner, species assumed): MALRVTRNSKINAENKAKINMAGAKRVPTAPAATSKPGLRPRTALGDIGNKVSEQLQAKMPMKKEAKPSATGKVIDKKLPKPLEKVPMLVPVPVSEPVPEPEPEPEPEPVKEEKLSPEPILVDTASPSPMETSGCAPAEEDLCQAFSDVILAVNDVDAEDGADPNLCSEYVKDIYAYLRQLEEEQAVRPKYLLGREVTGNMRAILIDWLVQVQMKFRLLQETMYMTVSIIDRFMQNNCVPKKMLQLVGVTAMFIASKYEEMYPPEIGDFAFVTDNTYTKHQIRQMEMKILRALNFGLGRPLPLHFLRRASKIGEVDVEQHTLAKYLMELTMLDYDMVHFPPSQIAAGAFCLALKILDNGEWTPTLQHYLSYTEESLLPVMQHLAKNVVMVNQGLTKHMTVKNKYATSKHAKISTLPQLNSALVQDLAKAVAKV
Chain of CDK4/cyclin D1 (P11802 whole entry, species assumed): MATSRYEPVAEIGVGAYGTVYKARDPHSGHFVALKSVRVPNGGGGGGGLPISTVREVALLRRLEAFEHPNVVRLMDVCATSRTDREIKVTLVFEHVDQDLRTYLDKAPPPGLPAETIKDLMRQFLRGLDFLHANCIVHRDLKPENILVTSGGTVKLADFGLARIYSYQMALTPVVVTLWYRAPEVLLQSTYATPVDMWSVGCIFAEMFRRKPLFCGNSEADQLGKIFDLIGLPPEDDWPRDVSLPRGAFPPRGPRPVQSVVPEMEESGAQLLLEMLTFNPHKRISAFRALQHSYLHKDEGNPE
Chain of CDK4/cyclin D1 (P24385 whole entry partner, species assumed): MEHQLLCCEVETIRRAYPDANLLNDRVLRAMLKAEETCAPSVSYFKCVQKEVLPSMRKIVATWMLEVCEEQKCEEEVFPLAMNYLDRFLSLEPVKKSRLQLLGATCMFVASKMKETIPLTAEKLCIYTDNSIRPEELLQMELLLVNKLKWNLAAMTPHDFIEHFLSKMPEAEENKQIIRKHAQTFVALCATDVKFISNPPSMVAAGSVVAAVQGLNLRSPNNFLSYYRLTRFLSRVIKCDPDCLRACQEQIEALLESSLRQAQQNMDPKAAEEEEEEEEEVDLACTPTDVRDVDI

Molecule	Ki (CDK9/cyclin T1)	Ki (CDK7/cyclin H)	Ki (CDK1/cyclin B)	IC50 (GSK3β)	Ki (CDK2/cyclin E)	Ki (CDK4/cyclin D1)	Ki (aurora A)	Ki (CDK2/cyclin A)	anti-HIV activity based on TI (therapeutic index: TC50/IC50) (HIV-1)	IC50 (GSK3α)	further results
CC(=O)NCc1ccc(Nc2nccc(-c3sc(=O)n(C)c3C)n2)cc1 [Compound 59, N-{4-[4-(3,4-Dimethyl-2-oxo-2,3-dihydro-thiazol-5-yl)-pyrimidin-2-ylamino]-benzyl}-acetamide]	7 nM	210 nM	85 nM	18.3 nM	1.6 nM	97 nM	110 nM	160 nM	Active		
Cc1c(-c2ccnc(Nc3cccc(S(N)(=O)=O)c3)n2)sc(=O)n1C [Compound 60, 3-[4-(3,4-Dimethyl-2-oxo-2,3-dihydro-thiazol-5-yl)-pyrimidin-2-ylamino]-benzenesulfonamide]	0.3 nM	39 nM	21 nM	1.8 nM	3.4 nM	22 nM	30 nM	21 nM	Active		
Cc1c(-c2ccnc(Nc3ccc(Cl)c(C(F)(F)F)c3)n2)sc(=O)n1C [Compound 66, 5-[2-(4-Chloro-3-trifluoromethyl-phenylamino)-pyrimidin-4-yl]-3,4-dimethyl-3H-thiazol-2-one]	21 nM	2300 nM		15 nM	200 nM					32 nM	IC50 (DYRK1A): 356 nM; % Glucose Decrease AUC (−270–180 min) [1, 3]: 20%; % Glucose decrease-AUC (0–180 min) [1, 3]: 17* %; decreased blood glucose levels [1, 4]: statistically significant; glucose AUC [1, 4]: moderate decrease; oral bioavailability (blood levels at 30 and 60 min after the glucose load) ([2]; male ZDF fa/fa rats): some oral bioavailability; concentration at 30 min ([2]; male, rat, whole blood, oral, ZDF fa/fa rats, time 30 min): 157 ng/mL; concentration at 60 min ([2]; male, rat, whole blood, oral, ZDF fa/fa rats, time 60 min): 162 ng/mL
Cc1c(-c2ccnc(Nc3ccc(C#N)c(C(F)(F)F)c3)n2)sc(=O)n1C [Compound 70, 4-[4-(3,4-Dimethyl-2-oxo-2,3-dihydro-thiazol-5-yl)-pyrimidin-2-ylamino]-2-trifluoromethyl-benzonitrile]				6.8 nM						3.6 nM	
Cc1c(-c2ccnc(Nc3cccc(S(=O)(=O)NCc4ccccc4)c3)n2)sc(=O)n1C [Compound 77, N-Benzyl-3-[4-(3,4-dimethyl-2-oxo-2,3-dihydro-thiazol-5-yl)-pyrimidin-2-ylamino]-benzenesulfonamide]				70.9 nM						61.5 nM	
Insulin											PEPCK gene expression, % of maximum stimulation (PEPCK gene expression): 44.09 ± 11.07%

Source: patent US7902361B2, “Pyrimidin-4-yl-3, 4-thione compounds and their use in therapy” (Cyclacel Limited, priority 2003, dated 2011)
